The supplement of paper PMC11061612

Experiments:
Prexasertib = compound: COc1cccc(OCCCN)c1-c1cc(Nc2cnc(C#N)cn2)n[nH]1 [Prexasertib]; conditions: max 1 µM
How it was run: (§1)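 Cancer cell lines in 1536-well plates (7.5 μl DMEM/F12 or RPMI, 10% FBS) were held 24 hours at 37°C and 5% CO2 and then dosed for 72 hours at a final DMSO of typically 0.2%. Viability was taken from CellTiter-Glo 2.0 luminescence, scaled between blank-well and DMSO-well means. Curves were fitted as two-parameter logistic models with a non-linear mixed effects model, from which the single-agent IC50 was taken.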

Doxorubicin = compound: COc1cccc2c1C(=O)c1c(O)c3c(c(O)c1C2=O)C[C@@](O)(C(=O)CO)C[C@@H]3O[C@H]1C[C@H](N)[C@H](O)[C@H](C)O1 [Doxorubicin]; conditions: max 1 µM
How it was run: as §1

Lapatinib = compound: CS(=O)(=O)CCNCc1ccc(-c2ccc3ncnc(Nc4ccc(OCc5cccc(F)c5)c(Cl)c4)c3c2)o1 [Lapatinib]; conditions: max 10 µM
How it was run: as §1

SN-38 = compound: CCc1c2c(nc3ccc(O)cc13)-c1cc3c(c(=O)n1C2)COC(=O)[C@]3(O)CC [SN-38]; conditions: max 0.3 µM
How it was run: as §1

AZD5153 = compound: COc1nnc2ccc(N3CCC(c4ccc(OCCN5CCN(C)C(=O)[C@H]5C)cc4)CC3)nn12 [AZD5153]; conditions: max 1 µM
How it was run: as §1

Dasatinib = compound: CC1=C(C(=CC=C1)Cl)NC(=O)C2=CN=C(S2)NC3=CC(=NC(=N3)C)N4CCN(CC4)CCO [Dasatinib]; conditions: max 2 µM
How it was run: as §1

Venetoclax = compound: CC1(C)CCC(CN2CCN(c3ccc(C(=O)NS(=O)(=O)c4ccc(NCC5CCOCC5)c([N+](=O)[O-])c4)c(Oc4cnc5[nH]ccc5c4)c3)CC2)=C(c2ccc(Cl)cc2)C1 [Venetoclax]; conditions: max 1 µM
How it was run: as §1

Alisertib = compound: COc1cc(Nc2ncc3c(n2)-c2ccc(Cl)cc2C(c2c(F)cccc2OC)=NC3)ccc1C(=O)O [Alisertib]; conditions: max 10 µM
How it was run: as §1

Selumetinib = compound: Cn1cnc2c(F)c(Nc3ccc(Br)cc3Cl)c(C(=O)NOCCO)cc21 [Selumetinib]; conditions: max 10 µM
How it was run: as §1

AZD4320 = compound: CN(CC[C@H](CSC1=CC=CC=C1)NC2=C(C=C(C=C2)S(=O)(=O)NC(=O)C3=CC=C(C=C3)N4CCC(CC4)[C@H](C5=CC=CC=C5C6=CC=C(C=C6)Cl)O)S(=O)(=O)C(F)(F)F)CCO [AZD4320]; conditions: max 1 µM
How it was run: as §1

AZD2811 = compound: CCN(CCO)CCCOc1ccc2c(Nc3cc(CC(=O)Nc4cccc(F)c4)[nH]n3)ncnc2c1 [AZD2811]; conditions: max 1 µM
How it was run: as §1

AZD1775 = compound: C=CCn1c(=O)c2cnc(Nc3ccc(N4CCN(C)CC4)cc3)nc2n1-c1cccc(C(C)(C)O)n1 [AZD1775]; conditions: max 3 µM
How it was run: as §1

SG3199 = compound: CC1=CN2[C@@H](C1)C=NC3=CC(=C(C=C3C2=O)OC)OCCCCCOC4=C(C=C5C(=C4)N=C[C@@H]6CC(=CN6C5=O)C)OC [SG3199]; conditions: max 0.001 µM
How it was run: as §1

AZD7648 = compound: Cc1cc2ncnn2cc1Nc1ncc2c(n1)n(C1CCOCC1)c(=O)n2C [AZD7648]; conditions: max 10 µM
How it was run: as §1

Crizotinib = compound: C[C@@H](Oc1cc(-c2cnn(C3CCNCC3)c2)cnc1N)c1c(Cl)ccc(F)c1Cl [Crizotinib]; conditions: max 10 µM
How it was run: as §1

AZD6738 = compound: C[C@@H]1COCCN1C2=NC(=NC(=C2)C3(CC3)[S@](=N)(=O)C)C4=C5C=CNC5=NC=C4 [AZD6738]; conditions: max 10 µM
How it was run: as §1

Taselisib = compound: Cc1nc(-c2cn3c(n2)-c2ccc(-c4cnn(C(C)(C)C(N)=O)c4)cc2OCC3)n(C(C)C)n1 [Taselisib]; conditions: max 10 µM
How it was run: as §1

Palbociclib = compound: CC(=O)c1c(C)c2cnc(Nc3ccc(N4CCNCC4)cn3)nc2n(C2CCCC2)c1=O [Palbociclib]; conditions: max 10 µM
How it was run: as §1

Olaparib = compound: O=C(c1cc(Cc2n[nH]c(=O)c3ccccc23)ccc1F)N1CCN(C(=O)C2CC2)CC1 [Olaparib]; conditions: max 10 µM
How it was run: as §1

Capivasertib = compound: C1CN(CCC1(C(=O)N[C@@H](CCO)C2=CC=C(C=C2)Cl)N)C3=NC=NC4=C3C=CN4 [Capivasertib]; conditions: max 10 µM
How it was run: as §1

Gefitinib = compound: COc1cc2ncnc(Nc3ccc(F)c(Cl)c3)c2cc1OCCCN1CCOCC1 [Gefitinib]; conditions: max 10 µM
How it was run: as §1

Savolitinib = compound: C[C@@H](c1ccc2nccn2c1)n1nnc2ncc(-c3cnn(C)c3)nc21 [Savolitinib]; conditions: max 1 µM
How it was run: as §1

AZD8186 = compound: C[C@@H](Nc1cc(F)cc(F)c1)c1cc(C(=O)N(C)C)cc2c(=O)cc(N3CCOCC3)oc12 [AZD8186]; conditions: max 3 µM
How it was run: as §1

Trametinib = compound: CC(=O)Nc1cccc(-n2c(=O)n(C3CC3)c(=O)c3c(Nc4ccc(I)cc4F)n(C)c(=O)c(C)c32)c1 [Trametinib]; conditions: max 1 µM
How it was run: as §1

AZD1390 = compound: CC(C)n1c(=O)n(C)c2cnc3cc(F)c(-c4ccc(OCCCN5CCCCC5)nc4)cc3c21 [AZD1390]; conditions: max 0.3 µM
How it was run: as §1

AZD5991 = compound: Cc1c2c(nn1C)CSCc1cc(n(C)n1)CSc1cc(c3ccccc3c1)OCCCc1c(C(=O)O)n(C)c3c-2c(Cl)ccc13 [AZD5991]; conditions: max 1 µM
How it was run: as §1

AZD0156 = compound: CN(C)CCCOc1ccc(-c2ccc3ncc4c(c3c2)n(C2CCOCC2)c(=O)n4C)cn1 [AZD0156]; conditions: max 3 µM
How it was run: as §1

MK-2206 = compound: NC1(c2ccc(-c3nc4ccn5c(=O)[nH]nc5c4cc3-c3ccccc3)cc2)CCC1 [MK-2206]; conditions: max 10 µM
How it was run: as §1

Row | Cell Line | IC50, cell viability 72 h (Prexasertib) [µM] | IC50, cell viability 72 h (Doxorubicin) [µM] | IC50, cell viability 72 h (Lapatinib) [µM] | IC50, cell viability 72 h (SN-38) [µM] | IC50, cell viability 72 h (AZD5153) [µM] | IC50, cell viability 72 h (Dasatinib) [µM] | IC50, cell viability 72 h (Venetoclax) [µM] | IC50, cell viability 72 h (Alisertib) [µM] | IC50, cell viability 72 h (Selumetinib) [µM] | IC50, cell viability 72 h (AZD4320) [µM] | IC50, cell viability 72 h (AZD2811) [µM] | IC50, cell viability 72 h (AZD1775) [µM] | IC50, cell viability 72 h (SG3199) [µM] | IC50, cell viability 72 h (AZD7648) [µM] | IC50, cell viability 72 h (Crizotinib) [µM] | IC50, cell viability 72 h (AZD6738) [µM] | IC50, cell viability 72 h (Taselisib) [µM] | IC50, cell viability 72 h (Palbociclib) [µM] | IC50, cell viability 72 h (Olaparib) [µM] | IC50, cell viability 72 h (Capivasertib) [µM] | IC50, cell viability 72 h (Gefitinib) [µM] | IC50, cell viability 72 h (Savolitinib) [µM] | IC50, cell viability 72 h (AZD8186) [µM] | IC50, cell viability 72 h (Trametinib) [µM] | IC50, cell viability 72 h (AZD1390) [µM] | IC50, cell viability 72 h (AZD5991) [µM] | IC50, cell viability 72 h (AZD0156) [µM] | IC50, cell viability 72 h (MK-2206) [µM]
1 | CAS-1 (Glioblastoma) | 0.158 | > 1 | > 10 | 0.202 | 0.345 | 0.931 | > 1 | 4.13 | > 10 | > 1 | > 1 | 1.6 | > 0.001 | > 10 | > 10 | > 10 | > 10 | > 10 | > 10 | 7.05 | > 10 | > 1 | > 3 | 0.465 | > 0.3 | > 1 | > 3 | 
2 | Hs-445 (Non-Cancerous) | 0.0039 | 0.146 | > 10 | 0.00333 | > 1 | > 2 | > 1 | > 10 | > 10 | 0.224 | > 1 | 0.134 | > 0.001 | > 10 | > 10 | 2.09 | 9.18 | > 10 | > 10 | 3.88 | > 10 | > 1 | > 3 | > 1 | > 0.3 | 0.213 | > 3 | 
3 | ARH-77 (Non-Cancerous) | 0.0155 | 0.143 | 8.04 | 0.00668 | 0.0618 | 0.233 | > 1 | 1.17 | > 10 | 0.1 | > 1 | 0.189 | > 0.001 | > 10 | > 10 | 1.85 | 0.528 | > 10 | > 10 | 1.76 | > 10 | > 1 | 1.27 | > 1 | > 0.3 | 0.229 | 1.79 | 
4 | NCI-H1693 (Lung Adenocarcinoma) | > 1 | > 1 | > 10 | 0.0872 | > 1 | > 2 | > 1 | > 10 | > 10 | > 1 | > 1 | > 3 | > 0.001 | > 10 | > 10 | > 10 | > 10 | > 10 | > 10 | > 10 | > 10 | > 1 | > 3 | > 1 | > 0.3 | > 1 | > 3 | 
5 | A549 (Lung Adenocarcinoma) | > 1 | 0.309 | 2.75 | 0.07 | 0.0952 | 0.17 | > 1 | 2.34 | 1.05 | > 1 | 0.777 | 2.46 | > 0.001 | > 10 | 6.62 | 6.07 | 1.72 | 8.16 | > 10 | 6.93 | > 10 | > 1 | > 3 | 0.0297 | > 0.3 | > 1 | > 3 | 
6 | LN-405 (Glioblastoma) | > 1 | > 1 | > 10 | > 0.3 | > 1 | > 2 | > 1 | > 10 | > 10 | > 1 | > 1 | > 3 | > 0.001 | > 10 | > 10 | > 10 | 6.55 | > 10 | > 10 | > 10 | > 10 | > 1 | > 3 | > 1 | > 0.3 | > 1 | > 3 | > 10
